Values of other authors, collected in patent US10292948B2 (Torrent Pharmaceuticals Limited, priority 2017, dated 2019).

Tests used:
[1] = pH dependent

In the case of `CC[C@@H](c1cccc(O)c1)[C@@H](C)CN(C)C.Cl` [Tapentadol, 3-[(1R,2R)-3-(dimethylamino)-1-ethyl-2-methylpropyl]phenol], the solubility [1] is listed as “highly soluble”, the “time of maximum serum concentration” value (after oral dosing) is listed as “around 1.25 hours” and the “administered tapentadol metabolized (first-pass metabolism)” value (oral administration) is listed as “about 97%”. For the same molecule, the bioavailability (oral administration) was 32% and the “time after administration at which absorption occurs” value (oral formulations) was “at least 45 minutes”.
